Values quoted from earlier work, collected in patent US20250144059A1, “GUANIDINOACETIC ACID, ITS DERIVATES, COMPOSITIONS AND METHODS OF USE THEREOF” (priority 2023, published 2025).

Conditions: Merck Index 15th Edition 2013, item #4530

solubility in water: fairly soluble in water
SMILES: N=C(N)NCC(=O)O [Number G10, guanidinoacetic acid]
